Entries after “also recorded” stand apart in the source; their conditions may differ.

Test [1] has as its system HeLa cells. In words: Western blot of cellular protein expression. It counts as cell-based, human. The settings on record: 24 h. The method, then:
Following growth for various times in the presence of 8q, HeLa cells were harvested by centrifugation and washed twice in 0 °C PBS. Cells were lysed with 0.1% (v/v) Triton X-100 containing RNase A at 0 °C, and supernatants were obtained by centrifuging the lysed cells at 15,000× g for 10 min at 4 °C. The protein content of the solutions was measured, and 10 μg of protein from each sample was subjected to sodium dodecyl sulfate polyacrylamide gel electrophoresis. Proteins were transferred by electroblotting to a poly(vinylidene difluoride) Hybond-P membrane from GE Healthcare. Membranes were treated with 5% bovine serum albumin in PBS containing 0.1% Tween 20 overnight at 4 °C. The membranes were then exposed for 2 h at room temperature to primary antibodies directed against cyclin B cdc25c, cdc2 (Y15), BCL-2, cleaved poly (ADP-ribose) polymerase (PARP), MCL-1, XIAP and vinculin (all from Cell Signaling), and subsequently for 1 h to peroxidase-labeled secondary antibodies. The membranes were visualized using ECL select (GE Healthcare), and images were acquired using a Uvitec-Alliance imaging system. Densitometric analysis of Western blots was performed by ImageJ software and the results were normalized to β-actin and represented as fold change with respect to untreated controls.

For test [2], the system named is HeLa cells. In words: EdU cell proliferation assay. The format is cell-based, human. The settings on record: 25 or 50 nM; 24 h. The method, then: HeLa cells were seeded in a 6-well plate and, after a 24 h incubation, were treated with the desired compounds as indicated in the Biological Results and Discussion section. Cells were re-incubated for one day and then labeled with EdU (10 μM) for 3 h under cell culture conditions. Cells were harvested by centrifugation before proceeding with the fixation step using 3.7% formaldehyde. Next, permeabilization with 0.5% Triton X-100 was performed. The reaction cocktail was prepared and added to each well (100 μL/well) following the manufacturer’s instructions (EdU-Click 488, base click, Sigma-Aldrich. Milano Italy), and the plate was incubated at room temperature for 30 min in the dark. Cells were washed 2 times with phosphate-buffered saline (PBS) before reading samples with a Beckman Coulter Cytomics FC500 instrument (λex/λem = 496/516 nm).

The subject of a further test is Bovine brain tubulin. Kind of test: Inhibition of [3H]colchicine binding to tubulin. Particulars: tubulin 0.5 µM, [3H]colchicine 5 µM, compound 5 µM. In outline: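 Polymerization: 10 μM tubulin preincubated with compound in 0.8 M monosodium glutamate (pH 6.6) at 30 °C, chilled to 0 °C, GTP added, rewarmed to 30 °C; assembly followed by turbidity. Colchicine binding: 0.5 μM tubulin with 5 μM each [3H]colchicine and test compound, bound label collected on a DEAE-cellulose filter.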

In test [3] the test system is HeLa cells in zebrafish Tg(fli1: EGFP) embryos. Kind of test: Zebrafish xenograft model with HeLa cells. It counts as in vivo, Danio rerio. Particulars: 145 or 290 nM, 24 h, 34 °C; p 0.04 and 0.01. The method, then: For the transplantation, zebrafish Tg(fli1: EGFP) embryos expressing enhanced green fluorescent protein (EGFP) specifically in vascular endothelial cells, were kept at 28 °C and manually dechorionated. Before microinjections into zebrafish embryos, HeLa cancer cells were stained with VybrantTM DiI Cell-Labeling Solution (Invitrogen, ThermoFisher, Carlsbad, CA, USA) according to the manufacturer’s protocol, in order to visualize and track them inside the larvae. Stained cells (1.0 × 10^6 cells) were suspended in 20 μL of PBS 1X obtaining a final concentration of 50 cells/nL; next, the cellular suspension was loaded into borosilicate glass capillary needles (OD/ID: 1.00/0.75 mm, World Precision Instruments, Sarasota, FL, USA). […]
Initially (time 0 h pre-treatment) and after one day post-treatment, the tumors were photographed with a Zeiss AxioObserver microscope for live-cell imaging. HeLa cell fluorescence was recorded to investigate reduction, death and migration of tumor cells. Using Fiji ImageJ software, the reduction in cancer cell fluorescence, related to the effectiveness of the anticancer drug treatments, was calculated and plotted. The fluorescence of at least 20 identically treated embryos was compared to vehicle control set to 100%.

The subject of a further test is HT-29. In words: Antiproliferative assay (resazurin, 72 h). It counts as cell-based, human. Particulars: Table 2; mean ± SE; 72 h. In a few lines: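 Seed cells; after 24 h add compounds (10 mM DMSO stocks, diluted 5-fold serially from 10 μM). Incubate 72 h, then add resazurin for 3–4 h and measure fluorescence (535/600 nm). HT-29 was grown in RPMI-1640 and the others in DMEM, with 10% FBS.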

With `Cc1cc(Nc2ccc(F)cc2)n2nc(NCCCc3ccccc3)nc2n1` [Compound 8q], in the test with HeLa cells [1] (50 nM), the “BCL-2 and MCL-1 expression” value was “partial reduction in BCL-2 and MCL-1 expression”; the “caspase-3 activation and PARP cleavage” value was “appearance of the cleaved fragment of the executioner caspase-3 and the consequent cleavage of its substrate PARP”. In the test on HeLa cells [1], the “ATR (Ser428) and CHK1 (S345) phosphorylation” value was “appreciable increase in ATR phosphorylation (Ser428) and of its downstream target CHK1 (S345)”; the “cdc2 phosphorylation (Tyr15)” value was “significant reduction in cdc2 phosphorylation (Tyr15)”. In addition, in the test on HeLa cells [2], the “EdU incorporation / cell proliferation” value is on record as “effective in reducing HeLa cell proliferation”. In addition, the “Colchicine Binding % Inhibition ± SD” value with Bovine brain tubulin was 88 ± 0.8%. In addition, in test [3], the “HeLa tumor cells / fluorescence in zebrafish xenograft” value was “significantly inhibited HeLa cell growth in zebrafish embryos; also recorded: number of circulating tumor cells was significantly reduced; also recorded: fluorescence intensity decreased in a dose-dependent manner; also recorded: reduced HeLa cell growth in xenografts implanted in zebrafish embryos”. Further, in the test on HT-29, it took 49 ± 10 nM to reach half-maximal inhibition (IC50).
